According to US20230312652A1, “NOVEL PEPTIDES AND USES THEREOF” (Aarhus Universitet, priority 2020, published 2023):
Read-outs that look alike come from different tables or passages of the source. Where a SMILES comes first, the peptide text is derived from it.

Tests used:
CREB = CREB activation (phosphorylation on serine 133) in wild-type cortical neurons, western blotting; type: cell-based, mouse; conditions: 20 minutes, 7 days in vitro
Description: (§1) To assess the ability of peptides P1, P2 and P6, respectively, to activate transcription factor CREB, cortical neurons were isolated from p0 wild-type mice and seeded in a density of 500.000 per well. After 7 days in vitro the neurons were stimulated with the different peptide variants at 1 uM in neurobasal A media and incubated at 37° C. and 5% C02 for 20 minutes. Hereafter, the neurons were lysed in lysis buffer containing DTT and cOmplete cocktail protease inhibitor and subsequently sonicated to disrupt the nuclear membrane. The phosphorylation of CREB on serine 133 was validated by western blotting normalized to beta-actin. As control, cells were stimulated with a scrambled peptide (Scr). Student's t-test was used for statistical analysis.
as §1, with “The” for “To assess the”, “peptide P1” for “peptides P1, P2”, “a linear peptide analog of P1 with acetylated N- and amidated C-terminals (referred to as LP1)” for “P6, respectively,”, “CREB was assessed. Cortical” for “CREB, cortical”, “20 nM” for “1 uM”, “CO2” for “C02”

[1] = tested on: AMPK (T172) and CREB (S133); assay: P1 activation of AMPK and CREB with or without CaMKK2-inhibitor STO-609 in cortical neurons; type: cell-based, mouse
Description: Mouse cortical neurons were isolated from p0 wild-type mice and seeded in a density of 250,000 per well in a 12-well tray. After 7 days in vitro the neurons were either pre-treated with STO-609 (5 uM) for 1 hour or with DMSO (control). After 1 hour, the neurons were stimulated with P1 or a scrambled peptide (Scr), with or without STO-609, in neurobasal A media and incubated at 37° C. and 5% CO2 for 20 minutes. Hereafter, the neurons were lysed in lysis buffer containing DTT and cOmplete cocktail protease inhibitor. Phosphorylation of AMPK (T172) and CREB (S133) was validated by western blotting and normalized to beta-actin.

ST HDH cells (Q111, Q7) = assay: Active mitochondrial mass in ST HDH cells, MitoTracker; type: cell-based, mouse
Description: The impact on mitochondrial function was assessed in ST HDH cells (mouse striatal cell line) expressing either HTT with a 111 polyglutamine stretch (Q111) or a 7 polyglutamine stretch (Q7), thereby serving as a model of HD. The cells were stimulated with P1 at timepoints between 0-24 hours and mitochondrial mass was subsequently measured using MitoTracker—a probe which binds to active mitochondria. Signal was measured in plate-reader at ex/em […].

[2] = Plasma, whole brain and cerebrospinal fluid concentrations after SC or IV injection, LC MS/MS; type: in vivo, mouse; conditions: for half-life: mouse, in vivo, read-out: T½ in brain (converted)
Description: 13 mg/kg and 52 mg/kg of P1 were either subcutaneously or intravenously injected in wild-type mice in either 4.38 mM L-His, 140 mM NaCl, 0.2% Tween-20 and 1500 IU hyaluronidase (for SC, pH 6.15) or saline (IV). Both plasma, whole brain and cerebrospinal fluid concentrations were validated at different timepoints of 0.25-4 hours by LC MS/MS.
We further explored whether delivery to the CSF and brain would be dose-dependent by the SC route. P1 (SEQ ID NO: 1) were subcutaneously injected in wild-type mice in different concentrations of 0-52 mg/kg in 4.38 mM L-His, 140 mM NaCl, 0.2% Tween-20 and 1500 IU hyaluronidase (pH 6.15). Levels of P1 were validated in both plasma, whole brain and cerebrospinal fluid after 15 min injection by LC MS/MS.
13 mg/kg of P1 (SEQ ID NO: 1) were subcutaneously injected in wild-type mice in different formulations in either PBS buffer, in buffer containing 4.38 mM L-His, 140 mM NaCl, 0.2% Tween-20 and 1500 IU hyaluronidase (pH 6.15) or in buffer with 4.38 mM L-His, 140 mM NaCl, 0.2% Tween-20. Levels of P1 were validated in both plasma and whole brain after 15 and 30 min. of injection by LC MS/MS.

[3] = Stability in L-His buffer formulation with hyaluronidase; type: physicochemical; conditions: up to 7 days
Description: Buffer solution containing 4.4 mM L-histidine, 140 mM NaCl, 0.2% w/V Tween 20 and 1500 IU/mL hyaluronidase was incubated with 1 mM P1 at −20° C., 4° C. and 25° C. for up to 7 days. LCMS was used to ascertain the amount of P1 remaining in the solutions.

CYP450 enzymes = assay: Cytochrome P450 inhibition in liver microsomes; type: in vitro ADME; conditions: dose-range of P1, with or without NADPH
Description: Liver microsomes were prepared with cocktails of known substrates of the respective CYP450 enzymes to evaluate the effects of P1 on enzyme inhibition. For each CYP-enzyme a previously described inhibitor was used as a positive control. Sample solutions were pre-incubated with P1 (10 mM) or inhibitor at 37° C. for ten minutes before addition of NADPH. Enzyme activity was measured in samples containing a dose-range of P1 with or without NAPDH (substrate used by the liver enzymes in detoxification steps). Reactions were incubated for 10 minutes before the reactions were stopped and analysed by LCMS to detect CYP metabolites.

[4] = tested on: GRN+/- hippocampal neurons; assay: Dendritic branching of GRN+/- hippocampal neurons; type: cell-based, mouse; conditions: 1 uM, 72 hours
Description: To further validate the therapeutic potential of peptide P1 in frontotemporal dementia, its neurotrophic activity in GRN heterozygous hippocampal neurons isolated from p0 mice was investigated. Heterozygous loss of function mutations in the progranulin gene, GRN, cause frontotemporal dementia^68. To assess this, we measured the dendritic branching of GRN+/− hippocampal neurons in vitro following treatment. 10000 neurons were seeded per coverslip. After 24 hours the medium was changed to medium containing 1 uM of peptide P1. Hereafter, the cells were incubated at 37° C. for 72 hours before being fixed in 4% PFA for 20 minutes at room temperature. The neurons were subsequently stained against MAP2 to determine cell morphology. Images were taken using a confocal microscope and the neurite branches were analysed using Zen Image Processing (Carl Zeiss). The total number of branches were calculated per neuron. Student's t-test was used for statistical analysis.

[5] = SC 0-52 mg/kg, 15 min after injection

With `CSCC[C@@H]1NC(=O)[C@H](C(C)C)NC(=O)[C@H](CC(=O)O)NC(=O)[C@H](CCC(=O)O)NC(=O)[C@H](CCC(=O)O)NC(=O)[C@H](Cc2c[nH]cn2)NC(=O)[C@H](CCC(=O)O)NC(=O)[C@H](C(C)C)NC(=O)[C@@H]2CCCN2C(=O)[C@H](CCC(=O)O)NC(=O)[C@H]([C@@H](C)O)NC1=O` [Peptide P1, [MTEPVEHEEDV]] (cyclo(MTEPVEHEEDV)) the “activation of CREB (phosphorylation on serine 133) compared to scrambled peptide” value (CREB; 20 nM) was “activated CREB”, the “activation of CREB (phosphorylation on serine 133) compared to scrambled peptide” value (CREB; 1 uM) was “markedly activated CREB” and the “phosphorylation of AMPK (T172)” value ([1]; 1 uM P1, without STO-609) was “significantly increased phosphorylation”. The “phosphorylation of CREB (S133)” value ([1]; 1 uM P1, without STO-609) was “significantly increased phosphorylation”, the “P1-induced activation of AMPK” value ([1]; pre-treated with 5 uM STO-609 for 1 hour) was “loss of P1-induced activation of AMPK” and the “CREB activation by P1” value ([1]; pre-treated with 5 uM STO-609 for 1 hour, compared to P1-treated cells only) was “lowered but not totally abolished”. For the same molecule, the mitochondrial mass (ST HDH cells (Q111, Q7); Q7 cells) was “mitochondrial mass is increased”, the mitochondrial mass (ST HDH cells (Q111, Q7); Q111 cells, 24 hours) was “increased above the baseline from the healthy cell line” and the “difference between L-His buffer with or without hyaluronidase” value ([2]; 13 mg/kg SC, plasma and whole brain, 15 and 30 min) was “no significant difference”. For the same molecule, the “levels in plasma and whole brain in different formulations” value ([2]; 13 mg/kg SC, PBS, L-His buffer with or without hyaluronidase, 15 and 30 min) was “measurable in the plasma and brain in all formulations”, the maximal brain-plasma ratio ([2]; IV delivery) was 0.034 and the “levels in brain and CSF” value [2, 5] was “measurable in the brain and CSF at all concentrations”. The “levels in plasma, brain and CSF versus dose” value [2, 5] was “increased with the dosage”, the maximal brain-plasma ratio ([2]; SC delivery) was 0.032 and the half-life ([2]; IV delivery, saline) was 13.9 min. For the same molecule, the half-life ([2]; SC delivery, L-His buffer with hyaluronidase) was 19 min, the “stability in buffer (amount remaining, LCMS)” value ([3]; 1 mM P1, 4° C.) was “no stability issues” and the “stability in buffer (amount remaining, LCMS)” value ([3]; 1 mM P1, 25° C.) was “could affect stability after 4 days”. For the same molecule, the “stability in buffer (amount remaining, LCMS)” value ([3]; 1 mM P1, −20° C.) was “no stability issues”, the CYP-inhibition (CYP450 enzymes) was “no CYP-inhibition effects” and the “number of branches per neuron” value [4] was “increased branching”.
